Measured values: the NIST ThermoML archive (doi:10.1016/j.jct.2013.11.027)

Tests used:
[1] = xn = mol fraction of the nth substance listed; settings: 101 kPa, Liquid; for speed of sound: Sing-around technique in a fixed-path interferometer; for mass density: Vibrating tube method
[2] = refractive index (Na D-line) (dimensionless); xn = mol fraction of the nth substance listed; settings: 101 kPa, Liquid, Standard Abbe refractometry

CCCCCCCC[n+]1ccn(C)c1.F[B-](F)(F)F [1-methyl-3-octylimidazolium tetrafluoroborate] + C1CCOC1
Settings	mass density, 298.15 K [kg/m3]	mass density, 308.15 K [kg/m3]	mass density, 318.15 K [kg/m3]	refractive index, 298.15 K	refractive index, 308.15 K	refractive index, 318.15 K	speed of sound, 298.15 K [m/s]	speed of sound, 308.15 K [m/s]	speed of sound, 318.15 K [m/s]
[1], x1 = 0.0963	944.168	934.385	924.531	–	–	–	1310.8	1268.5	1226.8
[1], x1 = 0.2018	987.574	978.487	969.198	–	–	–	1351.2	1313.4	1276.2
[1], x1 = 0.312	1018.46	1010.19	1001.93	–	–	–	1384.9	1350.7	1317.1
[1], x1 = 0.4027	1037.11	1029.2	1021.32	–	–	–	1406.3	1374.4	1343
[1], x1 = 0.4917	1051.3	1043.65	1035.82	–	–	–	1422.9	1392.6	1362.8
[1], x1 = 0.6241	1067.66	1060.32	1053.02	–	–	–	1442.5	1413.9	1385.9
[1], x1 = 0.6862	1073.96	1066.73	1059.49	–	–	–	1450.2	1422.2	1394.9
[1], x1 = 0.7615	1080.76	1073.65	1066.46	–	–	–	1458.6	1431.1	1404.5
[1], x1 = 0.8612	1088.58	1081.55	1074.56	–	–	–	1470.2	1444.2	1416.3
[1], x1 = 1	1097.61	1090.9	1084.17	–	–	–	1481.1	1453.9	1428.2
[2], x1 = 0.0963	–	–	–	1.41425	1.40956	1.40529	–	–	–
[2], x1 = 0.2018	–	–	–	1.42039	1.4162	1.41236	–	–	–
[2], x1 = 0.312	–	–	–	1.42432	1.42045	1.41715	–	–	–
[2], x1 = 0.4027	–	–	–	1.42658	1.4228	1.41965	–	–	–
[2], x1 = 0.4917	–	–	–	1.42817	1.42451	1.42147	–	–	–
[2], x1 = 0.6241	–	–	–	1.42996	1.42631	1.42348	–	–	–
[2], x1 = 0.6862	–	–	–	1.43062	1.42695	1.42415	–	–	–
[2], x1 = 0.7615	–	–	–	1.43129	1.4277	1.42493	–	–	–
[2], x1 = 0.8612	–	–	–	1.43207	1.42846	1.4258	–	–	–
[2], x1 = 1	–	–	–	1.43296	1.42939	1.42684	–	–	–

CCCCCCCC[n+]1ccn(C)c1.F[B-](F)(F)F [1-methyl-3-octylimidazolium tetrafluoroborate] + C1COCCO1
Settings	mass density, 298.15 K [kg/m3]	mass density, 308.15 K [kg/m3]	mass density, 318.15 K [kg/m3]	refractive index, 298.15 K	refractive index, 308.15 K	refractive index, 318.15 K	speed of sound, 298.15 K [m/s]	speed of sound, 308.15 K [m/s]	speed of sound, 318.15 K [m/s]
[1], x1 = 0.0859	1049.95	1040.08	1030.18	–	–	–	1380.8	1341.1	1301.8
[1], x1 = 0.192	1064.93	1055.92	1047.49	–	–	–	1414.2	1378.1	1343.1
[1], x1 = 0.2914	1074.44	1066.14	1057.87	–	–	–	1436.8	1403.6	1370.9
[1], x1 = 0.3963	1080.96	1073.08	1065.23	–	–	–	1451.6	1420.6	1390
[1], x1 = 0.4955	1085.46	1077.85	1070.11	–	–	–	1460.4	1430.9	1401.8
[1], x1 = 0.5947	1088.93	1081.57	1074.25	–	–	–	1466.5	1438	1410.1
[1], x1 = 0.69	1091.4	1084.18	1076.98	–	–	–	1469	1440.8	1414.8
[1], x1 = 0.7938	1093.66	1086.61	1079.53	–	–	–	1475.1	1447.9	1421.7
[1], x1 = 0.8893	1095.2	1088.29	1081.42	–	–	–	1477.8	1450.9	1425.1
[1], x1 = 1	1097.61	1090.9	1084.17	–	–	–	1481.1	1453.9	1428.2
[2], x1 = 0.0859	–	–	–	1.42308	1.41854	1.41465	–	–	–
[2], x1 = 0.192	–	–	–	1.42601	1.42173	1.41833	–	–	–
[2], x1 = 0.2914	–	–	–	1.42812	1.42412	1.42107	–	–	–
[2], x1 = 0.3963	–	–	–	1.42935	1.42549	1.42264	–	–	–
[2], x1 = 0.4955	–	–	–	1.43039	1.42664	1.42387	–	–	–
[2], x1 = 0.5947	–	–	–	1.43124	1.42746	1.42483	–	–	–
[2], x1 = 0.69	–	–	–	1.43181	1.42809	1.42548	–	–	–
[2], x1 = 0.7938	–	–	–	1.43221	1.42865	1.42605	–	–	–
[2], x1 = 0.8893	–	–	–	1.43262	1.42907	1.42628	–	–	–
[2], x1 = 1	–	–	–	1.43296	1.42939	1.42684	–	–	–
